Data on twelve compounds can be found in patent US8912227B1, “Bicyclic pyrrole derivatives useful as agonists of GPR120” (Janssen Pharmaceutica NV, priority 2014, dated 2014).

Holding throughout (type): cell-based
In assay [1] the target is T1, long form of human GPR120 (Homo sapiens, UniProt Q5NUL3).
T1 construct: host or cells: PathHunter CHO-K1 GPR120 β-Arrestin Cell Line
Kind of assay: Human GPR120 DiscoveRx PathHunter β-Arrestin assay, Procedure β-arrestin A. As to conditions: PathHunter CHO-K1 GPR120 β-Arrestin cell line, 3000 cells per well. From the text: The binding of an agonist (medium/long chain fatty acids or small molecule agonists) to the G-protein-coupled receptor GPR120 activates phospholipase C, leading to release of intracellular Ca^+2 through the generation of inositol 1,4,5-trisphosphate (InsP3 or IP3). GPR120 activation can also trigger intracellular signaling via recruitment of β-Arrestin. In the present method, agonist-induced activation of the human GPR120 receptor is monitored through the use of PathHunter CHO-K1 GPR120 β-Arrestin Cell Line engineered by DiscoveRx, as detailed below. The cell lines are designed to co-express both the ProLink/Enzyme Donor (PK)-tagged GPCR and the Enzyme […] (EA)-tagged Beta-Arrestin fusion proteins. Upon GPR120 receptor stimulation/activation, the EA-tagged β-Arrestin portion is translocated to the tagged receptor, where the two enzyme fragments are brought within close proximity. Under these conditions, these fragments can interact and form an active Beta-gal enzyme complex through Enzyme Fragment Complementation (EFC). This active Beta-gal complex can enzymatically hydrolyse the substrate to produce a detectable light signal; therefore, activation as a function of agonist concentration can be expressed as an EC50 value to determine relative compound activities. This in vitro assay therefore serves to assess compound agonist activity of the GPR120.
In Procedure β-arrestin A, the cell used were PathHunter CHO-K1 GPR120 β-Arrestin Cell Line, expressing the long form of human GPR120 (Genbank accession number NM_181745), with 3000 cells per well.
The selected CHO-K1 GPR120 β-Arrestin cells were cultured in Ham's F12 media supplemented with 10% fetal bovine serum (FBS), 1% Glutamine, 1×p/s, 800 μg/ml G418 and 300 μg/ml Hygromycin B (for selection). Cell stocks were maintained and grown in a sub-confluent state using standard cell culture procedures. The day before the experiment, the cells were harvested with non-enzymatic cell dissociation buffer and re-suspended in complete growth media at the desired concentration. A Corning 384-plate was then seeded with the proper number of cells in a volume of 25 μL, per well. The seeded plates were incubated overnight at 37° C.
On the day of the experiment, the Assay Buffer containing (a) HBSS with Ca^++ and Mg^++, (b) 20 mM HEPES, and (c) 0.1% BSA stabilizer (pH 7.4) was prepared. The growth medium was gently removed from the cell plates and 20 μL of Assay Buffer added to each well. The plate was then incubated at 37° C. for 60 mins. Test compounds were serially diluted in Assay Buffer to desired concentrations (more particularly, to one or more of the following μM concentrations: 25 μM, 12.5 μM, 6.25 μM, 3.125 μM, 1.562 μM, 0.781 μM, 0.391 μM, 0.195 μM, 0.098 μM, 0.049 μM, 0.024 μM, 0.012 μM). Five μl of compound dilution was then added to each well and the plate incubated at 37° C. for 90 mins. The detection reagents were prepared according to the manufacture's instruction. Twelve μL of the detection reagents were added to each well and the plate incubated at room temperature for 60 mins.
The plates were read on an EnVision instrument, using Protocol name: Luminescence, Plate type: 384 Costar, Measurement height: 3 mm, Measurement time: 1 s, Aperture: 384 Plate aperture. The % activity relative to the positive control was calculated using the following equation:
The % Activity values were plotted versus the concentration of test compound and fitted to a sigmoidal dose-response curve with a Hill slope=1 (fixed value) using nonlinear regression with GraphPad Prism 5.0 to calculate the EC50 values. The Fitting Equation was: Y=Bottom+(Top−Bottom)/(1+10^((LogEC50−X)*HillSlope)), where X is the log of the concentration and Y is the response.

In assay [2] the target is T2, Human GPR120 short form (Homo sapiens, UniProt Q5NUL3).
T2 construct: expressed in transfected cells
T2 sequence (Q5NUL3 1-361): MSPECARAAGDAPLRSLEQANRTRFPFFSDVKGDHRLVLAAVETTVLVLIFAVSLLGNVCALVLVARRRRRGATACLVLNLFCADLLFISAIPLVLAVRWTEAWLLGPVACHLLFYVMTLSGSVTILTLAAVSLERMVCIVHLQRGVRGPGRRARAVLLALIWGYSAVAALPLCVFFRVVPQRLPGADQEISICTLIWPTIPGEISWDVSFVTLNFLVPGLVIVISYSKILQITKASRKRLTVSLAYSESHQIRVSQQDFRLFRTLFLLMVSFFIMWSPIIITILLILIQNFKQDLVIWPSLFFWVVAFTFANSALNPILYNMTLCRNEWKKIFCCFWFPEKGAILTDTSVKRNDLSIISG
Kind of assay: Human GPR120 calcium flux assay, Procedure Calcium B. The following applies: HEK-293 cells expressing human GPR120 short form, 4200 cells/well, FLIPR. The text has this: (§1) This in vitro assay serves to assess test compound agonist activity against the short splice variant (SVS with Accession number NM_001195755.1 confirmed by sequencing data) of the GPR120 receptor. The Human Short splice variant #2 (NM_001195755.1) is missing an in-frame coding exon compared to variant 1 (the Human Long splice variant NM_181745.3), resulting in a shorter isoform (GPR120-S) lacking a 16 aa protein segment compared to isoform GPR120-L. The assay platform utilizes HEK-293 cells stably transfected to express the Human GPR120 short form. These cells are first loaded with the Ca^+2 sensitive dye, Fluo-4 NW. Upon stimulation, intracellular released Ca^+2 can bind to the dye and alter its fluorescence intensity. This increase in fluorescence signal, and thus the flux in intracellular [Ca^2+], is detected and quantitated by fluorescence imaging using a FLIPR reader. The effect of the agonist is measured as a function of concentration and used to calculate an EC50 based upon a response curve.
In this procedure 4200 cells/well were employed.
(§2) A Human GPR120 clone (Genbank accession number NM_001195755.1) was placed into the pcDNA3.1 mammalian expression vector carrying the neomycin resistance gene. A stable mammalian cell was generated by placing the above clone into a HEK293 background. Clonal cells responding to long chain fatty acids had expression levels of GPR120 confirmed by RT-qPCR. Human HEK-GPR120 cells were cultured in Dulbecco's Modified Eagle's Medium (DMEM)/F12 medium supplemented with 10% fetal bovine serum (FBS), 1% L-Glutamine and 1% penicillin/streptomycin and 0.5 mg/ml G-418. Cells were split 2 times a week to keep the cells in the log-phase growth.
(§3) In preparation for the assay, HEK cells stably transfected with Human GPR120 (2.5K cells per well in 25 uL growth medium) were seeded into 384-well plates and then incubated overnight (37° C., 5% CO2). The next day, the media was changed to 20 μl assay buffer and the cell starved for 1 h at 37° C. The dye loading solution (2× dye) was prepared using 10 ml assay buffer, 100 μl of 250 mM probenecid, 1 bottle of Component A, and 20 μl of dye in DMSO. Twenty μl of the 2× dye loading buffer was then added to each well. The plates were incubated at 37° C. for 30 min, then at room temperature for an additional 15 minutes, before performing the assay on FLIPR.
(§4) Test compounds were prepared in assay buffer (2 μl of test compound+198 μl assay buffer, final DMSO in assay plate is 0.2%) at the desired concentration, more particularly at 100 μM, 50 μM, 25 μM, 12.5 μM, 6.25 μM, 3.125 μM, 1.562 μM, 0.781 μM, 0.391 μM, 0.195 μM, 0.098 μM, 0.049 μM, 0.024 μM and 0.012 μM.
(§5) The assay was performed on a FLIPR plate reader using the following parameters. Baseline was read for 10 seconds at 1 sec intervals. The program was set to transfer 10 μL of ligand from compound plate to cell plate after baseline reading. Aspiration was executed at: 10 μl/sec speed, 4.6 μl height; Dispensing was executed at: 30 μl/sec speed, 45 μl height. After compound addition, each well was read for 300 sec, with measurements collected at 1 sec intervals.
(§6) The kinetic data from the FLIPR was based upon a 5 minute window for data collection. The fluorescence of each sample well was used for individual calculations of a normalized RFU value, which was defined as maximum response minus the minimum response. The normalized fluorescence reading (RFU) was calculated as follows: RFU=Fmax−Fmin
(§7) The data were fitted to a sigmoidal dose-response curve with a variable Hill slope (<2) using nonlinear regression with GraphPad Prism 5.0 to calculate the EC50 values. The Fitting Equation was: Y=Bottom+(Top−Bottom)/(1+10^((LogEC50−X)*HillSlope)), where X is the log of the concentration and Y is the response.
A general note: Calcium flux is commonly read through the fluorescence of an indicator in the cells.

The target in assay [3] is T2, Human GPR120 short form. Kind of assay: Human GPR120 calcium flux assay, Procedure Calcium A. As to conditions: HEK-293 cells expressing human GPR120 short form, 2500 cells/well, FLIPR.
Excerpt: as §1
In this procedure 2500 cells/well were employed.
as §2, §3, §4, §5, §6, §7

T1 sequence (Q5NUL3 1-377 isoform Q5NUL3-1): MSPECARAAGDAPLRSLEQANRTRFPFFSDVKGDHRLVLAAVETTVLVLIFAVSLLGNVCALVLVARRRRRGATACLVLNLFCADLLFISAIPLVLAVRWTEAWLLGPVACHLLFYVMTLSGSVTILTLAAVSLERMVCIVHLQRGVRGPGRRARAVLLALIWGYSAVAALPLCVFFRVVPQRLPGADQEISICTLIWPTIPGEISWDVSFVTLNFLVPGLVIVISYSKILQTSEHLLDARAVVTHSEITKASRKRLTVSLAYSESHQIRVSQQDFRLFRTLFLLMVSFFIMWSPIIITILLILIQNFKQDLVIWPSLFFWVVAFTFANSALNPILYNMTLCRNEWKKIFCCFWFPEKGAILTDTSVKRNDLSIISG
T1 sequence (P32121 whole entry partner): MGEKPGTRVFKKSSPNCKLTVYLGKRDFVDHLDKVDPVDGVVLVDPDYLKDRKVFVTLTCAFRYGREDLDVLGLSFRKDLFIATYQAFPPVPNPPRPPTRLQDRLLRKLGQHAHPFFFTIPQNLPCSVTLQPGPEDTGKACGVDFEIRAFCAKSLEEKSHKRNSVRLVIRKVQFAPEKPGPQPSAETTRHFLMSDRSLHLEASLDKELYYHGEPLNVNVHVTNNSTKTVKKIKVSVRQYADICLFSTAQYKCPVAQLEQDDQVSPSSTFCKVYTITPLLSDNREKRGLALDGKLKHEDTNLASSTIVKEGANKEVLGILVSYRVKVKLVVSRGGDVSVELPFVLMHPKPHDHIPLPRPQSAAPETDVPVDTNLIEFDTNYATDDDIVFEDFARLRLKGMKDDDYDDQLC

`CCc1ccc(-n2ccc(C(F)(F)F)c2COc2c(F)cc(CCC(=O)O)cc2F)cc1` [Compound 32, 3-(4-[[1-(4-ethylphenyl)-3-(trifluoromethyl)-1H-pyrrol-2-yl]methoxy]-3,5-difluorophenyl)propanoic acid]: the EC50 (commonly the concentration giving half of the maximal effect) worked out at 357 nM in assay [1], 117 nM in assay [2] and 402 nM in assay [3].

As to `Cc1c(CCC(=O)O)ccc(OCc2c(C#N)ccn2-c2ccc(Cl)cc2)c1C` [Compound 12, 3-(4-{[1-(4-Chlorophenyl)-3-cyano-1H-pyrrol-2-yl]methoxy}-2,3-dimethylphenyl)propanoic acid], the EC50 in assay [2] amounted to 1140 nM; in assay [3], 4260 nM.

As to `CCc1ccc(-n2ccc(C(F)(F)F)c2COc2ccc(CCCO)c(C)c2C)cc1` [Compound 40, 3-(4-[[1-(4-ethylphenyl)-3-(trifluoromethyl)-1H-pyrrol-2-yl]methoxy]-2,3-dimethylphenyl)propan-1-ol], the EC50 in assay [2] worked out at 896 nM; in assay [3], 1920 nM.

As to `Cc1c(CCC(=O)O)ccc(OCc2c(Br)ccn2-c2ccc(Cl)cc2)c1C` [Compound 14, 3-(4-{[3-Bromo-1-(4-chlorophenyl)-1H-pyrrol-2-yl]methoxy}-2,3-dimethylphenyl)propanoic acid], the results for the EC50 in assay [2] and in assay [3] were 1400 nM and 2890 nM, respectively.

With `O=C(O)CCc1cc(F)c(OCc2c(C(F)(F)F)ccn2-c2ccc(Br)cc2)c(F)c1` [Compound 22, 3-(4-{[1-(4-Bromophenyl)-3-(trifluoromethyl)-1H-pyrrol-2-yl]methoxy}-3,5-difluorophenyl)propanoic acid], the results for the EC50 in assay [2] and in assay [3] were 112 nM and 1520 nM, respectively.

Consider `O=C(O)CCc1ccc(OCc2c(C(F)(F)F)ccn2-c2ccc(Br)cc2)c(F)c1F` [Compound 20, 3-(4-{[1-(4-Bromophenyl)-3-(trifluoromethyl)-1H-pyrrol-2-yl]methoxy}-2,3-difluorophenyl)propanoic acid], for which the results for the EC50 in assay [2] and in assay [3] were 289 nM and 1270 nM, respectively.

Consider `CCc1ccc(-n2ccc(C(F)(F)F)c2COc2ccc(CCCO)c(F)c2F)cn1` [Compound 54, 3-(4-[[1-(6-ethylpyridin-3-yl)-3-(trifluoromethyl)-1H-pyrrol-2-yl]methoxy]-2,3-difluorophenyl)propan-1-ol], for which the EC50 was found to be 115 nM in assay [2] and 497 nM in assay [3].

Consider `CCc1ccc(-n2ccc(C(F)(F)F)c2COc2ccc(CCCO)c(F)c2F)cc1` [Compound 41, 3-(4-[[1-(4-ethylphenyl)-3-(trifluoromethyl)-1H-pyrrol-2-yl]methoxy]-2,3-difluorophenyl)propan-1-ol], for which the values for the EC50 in assay [2] and in assay [3] were 247 nM and 1260 nM, respectively.

In the case of `Cc1ccc(-n2ccc(C(F)(F)F)c2COc2ccc(CCC(=O)O)c(F)c2F)cn1` [Compound 53, 3-(2,3-Difluoro-4-{[1-(6-methylpyridin-3-yl)-3-(trifluoromethyl)-1H-pyrrol-2-yl]methoxy}phenyl)propanoic acid], the 50% effective concentration (EC50) was determined as 428 nM in assay [2] and 1990 nM in assay [3].

Take `COc1ccc(-n2ccc(C(F)(F)F)c2COc2ccc(CCC(=O)O)c(F)c2F)cn1` [Compound 57, 3-(2,3-difluoro-4-((1-(6-methoxypyridin-3-yl)-3-(trifluoromethyl)-1H-pyrrol-2-yl)methoxy)phenyl)propanoic acid trifluoroacetic acid]: the EC50 is 77 nM in assay [2] and 840 nM in assay [3].

On to `N#Cc1ccn(-c2ccc(Cl)cc2)c1COc1ccc(CCC(=O)O)c(F)c1F` [Compound 9, 3-(4-{[1-(4-Chlorophenyl)-3-cyano-1H-pyrrol-2-yl]methoxy}-2,3-difluorophenyl)propanoic acid], for which the EC50 in assay [2] worked out at 1360 nM; in assay [3], 3710 nM.

For `CCc1ccc(-n2ccc(C(F)(F)F)c2COc2c(F)cc(CCC(=O)O)cc2F)cn1` [Compound 56, 3-(4-[[1-(6-ethylpyridin-3-yl)-3-(trifluoromethyl)-1H-pyrrol-2-yl]methoxy]-3,5-difluorophenyl)propanoic acid], the EC50 in assay [2] was determined as 877 nM; in assay [3] it was 1410 nM.
